What all share (type): biochemical
What all share (details): compounds tested at 0.8 mM

Assay [1] addresses T1, β-Glucuronidase Bovine liver (Bos taurus, UniProt A3KMY8).
T1 construct: The assay involved the use of Bovine liver β-glucuronidase; purchased Sigma; host or cells: bovine liver
T1 sequence (A3KMY8 1-652): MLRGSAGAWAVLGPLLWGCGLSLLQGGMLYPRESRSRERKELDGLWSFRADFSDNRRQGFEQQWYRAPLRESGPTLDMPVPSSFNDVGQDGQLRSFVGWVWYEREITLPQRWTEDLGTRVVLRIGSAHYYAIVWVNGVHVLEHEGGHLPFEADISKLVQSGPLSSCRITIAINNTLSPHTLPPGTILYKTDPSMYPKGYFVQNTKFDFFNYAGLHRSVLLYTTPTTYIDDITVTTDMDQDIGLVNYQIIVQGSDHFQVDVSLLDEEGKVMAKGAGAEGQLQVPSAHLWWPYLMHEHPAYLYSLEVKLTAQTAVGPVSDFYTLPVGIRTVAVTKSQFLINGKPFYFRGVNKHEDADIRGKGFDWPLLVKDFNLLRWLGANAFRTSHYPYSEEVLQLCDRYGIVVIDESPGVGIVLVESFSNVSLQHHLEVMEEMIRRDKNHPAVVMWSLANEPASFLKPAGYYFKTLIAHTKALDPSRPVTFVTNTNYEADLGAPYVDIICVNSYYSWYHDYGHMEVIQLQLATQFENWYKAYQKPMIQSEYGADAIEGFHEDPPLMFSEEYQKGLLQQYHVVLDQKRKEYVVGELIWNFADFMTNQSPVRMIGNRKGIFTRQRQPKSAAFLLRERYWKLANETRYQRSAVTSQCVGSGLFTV
Put plainly: Glycosidase inhibition: β-Glucuronidase Bovine liver.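 Note: bovine liver β-glucuronidase acting on p-nitrophenyl β-D-glucuronide substrate in citric acid/disodium hydrogen phosphate buffer, pH 5.0, 27 °C, mean of triplicate runs.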

Another assay has as its system β-D-glucosidase (Almond). Put plainly: Glycosidase inhibition: β-D-glucosidase (Almond). From the text:
(§1) The results tabulated below were obtained using commercially available glycosidases and p-nitrophenyl-substrates using standard methods described for example by Watson et al (1997) Phytochemistry 46 255-259. All enzymes and substrates were bought from Sigma. Enzyme and substrate solutions were made using sodium phosphate buffers at the pH optima values. The enzymes used were α-D-glucosidase Saccharomyces cerevisiae, Bacillus stearothermophilus, Oryzae sativa), β-D-glucosidase (Almond), α-D-mannosidase (Jack bean), α-D-galactosidase (Green coffee beans), β-D-galactosidase (Bovine liver), α-L-fucosidase (Bovine kidney), N-acetyl-β-D-glucosaminidase (Bovine kidney, Jack bean, Aspergillus oryzae), Naringinase (Penicillium decumbens) and amyloglucosidase (Aspergillus niger). All enzymes were used with the appropriate p-nitrophenyl substrates (5 mM). Amyloglucosidase activity was measured using amylopectin (0.1%) (Merck) mixed with sodium phosphate buffer, pH 4.5 in a glass bottle, and healed in a boiling water bath for 20 minutes to dissolve with released glucose measured using ‘Trinder’ glucose detection solution (Sigma).
(§2) All enzymes and para-nitrophenyl substrates were purchased from Sigma, with the exception of beta-mannosidase which came from Megazyme. Enzymes were assayed at 27° C. in 0.1M citric acid/0.2M disodium hydrogen phosphate buffers at the optimum pH for the enzyme. The incubation mixture consisted of 10 μl enzyme solution, 10 μl of 1 mg/ml aqueous solution of extract and 50 μl of the appropriate 5 mM para-nitrophenyl substrate made up in buffer at the optimum pH for the enzyme. The reactions were stopped by addition of 70 μl 0.4M glycine (pH 10.4) during the exponential phase of the reaction, which had been determined at the beginning using uninhibited assays in which water replaced inhibitor. Final absorbances were read at 405 nm using a Versamax microplate reader (Molecular Devices). Assays were carried out in triplicate, and the values given are means of the three replicates per assay. […]

Assay [2] addresses T2, α-D-galactosidase Green coffee bean (Coffea arabica, UniProt Q42656).
T2 construct: α-D-galactosidase (Green coffee beans); purchased Sigma; host or cells: green coffee beans
Put plainly: Glycosidase inhibition: α-D-galactosidase Green coffee bean.
Source text: as §1
(§3) All enzymes and para-nitrophenyl substrates were purchased from Sigma, with the exception of beta-mannosidase which came from Megazyme. Enzymes were assayed at 27° C. in 0.1M citric acid/0.2M disodium hydrogen phosphate buffers at the optimum pH for the enzyme. The incubation mixture consisted of 10 μl enzyme solution, 10 μl of 1 mg/ml aqueous solution of extract and 50 μl of the appropriate 5 mM para-nitrophenyl substrate made up in buffer at the optimum pH for the enzyme. The reactions were stopped by addition of 70 μl 0.4M glycine (pH 10.4) during the exponential phase of the reaction, which had been determined at the beginning using uninhibited assays in which water replaced inhibitor. Final absorbances were read at 405 nm using a Versamax microplate reader (Molecular Devices). Assays were carried out in triplicate, and the values given are means of the three replicates per assay. (See Watson, A. A., Nash, R. J., Wormald, M. R., Harvey, D. J., Dealler, S., Lees, E., Asano, N., Kizu, H., Kato, A., Griffiths, R. C., Cairns, A. J. and Fleet, G. W. J. (1997). Glycosidase-inhibiting pyrrolidine alkaloids from Hyacinthoides non-scripta. Phytochemistry 46 (2): 255-259.)

In assay [3] the target is T3, N-acetyl-β-D-glucosaminidase (A. oryzae) (Aspergillus oryzae, UniProt Q8J2T0).
T3 construct: purchased Sigma
Put plainly: Glycosidase inhibition: N-acetyl-β-D-glucosaminidase (A. oryzae).
Source text: as §1, §3

For assay [4], the system named is N-acetyl-β-D-glucosaminidase (Bovine kidney). Put plainly: Glycosidase inhibition: N-acetyl-β-D-glucosaminidase (Bovine kidney).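 Note: enzyme activity followed by cleavage of the matching p-nitrophenyl glycoside (5 mM) in phosphate buffer set to the enzyme's optimal pH.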
For assay [5], the system named is N-acetyl-β-D-glucosaminidase (Jack bean). Put plainly: Glycosidase inhibition: N-acetyl-β-D-glucosaminidase (Jack bean).
Source text: as §1, §2

Assay [6] concerns β-D-galactosidase Bovine liver. Put plainly: Glycosidase inhibition: β-D-galactosidase Bovine liver.
Source text: as §1, §3

Assay [7] relates to Naringinase Penicillium decumbens. Put plainly: Glycosidase inhibition: Naringinase Penicillium decumbens.
Source text: as §1, §2

Another assay has as its target T4, α-D-glucosidase (Rice) (Oryza sativa subsp. japonica, UniProt Q653V7).
T4 construct: purchased Sigma
Put plainly: Glycosidase inhibition: α-D-glucosidase (Rice).

Assay [8] concerns β-D-mannosidase Cellullomonas fimi. Put plainly: Glycosidase inhibition: β-D-mannosidase Cellullomonas fimi. The procedure:
as §3

The target in assay [9] is α-D-glucosidase (Bacillus) (Geobacillus stearothermophilus, UniProt A0ACH1E9U3). Put plainly: Glycosidase inhibition: α-D-glucosidase (Bacillus).
Source text: as §1, §3

Assay [10] deals with T5, Amyloglucosidase Aspergillus niger (Aspergillus niger, UniProt P69328).
T5 construct: purchased Sigma
Put plainly: Glycosidase inhibition: Amyloglucosidase Aspergillus niger.
Source text: as §1, §3

The target of the next assay is T6, α-D-glucosidase (Yeast) (Saccharomyces cerevisiae, UniProt P53341).
T6 construct: purchased Sigma
Put plainly: Glycosidase inhibition: α-D-glucosidase (Yeast).
Source text: as §1, §3

Where only a bound is given, the exact number is not on record here.

T5 sequence (P69328 25-640): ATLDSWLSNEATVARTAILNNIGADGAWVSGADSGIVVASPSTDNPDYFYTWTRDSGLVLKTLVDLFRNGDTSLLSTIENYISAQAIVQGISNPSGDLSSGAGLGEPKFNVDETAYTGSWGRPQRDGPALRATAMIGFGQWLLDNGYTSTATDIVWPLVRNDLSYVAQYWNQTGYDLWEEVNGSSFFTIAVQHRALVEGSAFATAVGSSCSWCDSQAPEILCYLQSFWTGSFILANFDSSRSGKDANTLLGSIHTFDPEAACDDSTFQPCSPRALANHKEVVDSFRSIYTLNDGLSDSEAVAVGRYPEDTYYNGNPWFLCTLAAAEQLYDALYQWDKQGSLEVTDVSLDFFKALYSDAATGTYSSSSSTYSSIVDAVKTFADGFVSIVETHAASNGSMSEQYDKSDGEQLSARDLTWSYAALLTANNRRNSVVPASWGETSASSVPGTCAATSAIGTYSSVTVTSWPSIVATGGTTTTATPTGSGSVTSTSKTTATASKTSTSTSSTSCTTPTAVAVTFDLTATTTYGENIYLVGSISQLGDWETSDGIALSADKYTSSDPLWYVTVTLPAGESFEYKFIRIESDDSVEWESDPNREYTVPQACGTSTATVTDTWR
T3 sequence (Q8J2T0 97-600): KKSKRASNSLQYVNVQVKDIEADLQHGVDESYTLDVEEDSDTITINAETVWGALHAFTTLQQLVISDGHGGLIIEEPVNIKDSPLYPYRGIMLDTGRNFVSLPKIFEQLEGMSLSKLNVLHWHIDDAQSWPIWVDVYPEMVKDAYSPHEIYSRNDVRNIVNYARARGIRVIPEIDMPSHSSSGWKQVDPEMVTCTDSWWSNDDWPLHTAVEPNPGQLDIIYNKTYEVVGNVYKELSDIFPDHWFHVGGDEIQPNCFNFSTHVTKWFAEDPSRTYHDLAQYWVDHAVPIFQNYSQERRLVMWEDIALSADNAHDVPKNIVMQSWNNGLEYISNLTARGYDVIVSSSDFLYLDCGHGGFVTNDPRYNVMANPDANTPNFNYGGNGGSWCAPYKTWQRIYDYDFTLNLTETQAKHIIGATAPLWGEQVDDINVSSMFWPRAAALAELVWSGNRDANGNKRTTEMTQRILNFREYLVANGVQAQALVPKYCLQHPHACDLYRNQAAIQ
T4 sequence (Q653V7 34-885): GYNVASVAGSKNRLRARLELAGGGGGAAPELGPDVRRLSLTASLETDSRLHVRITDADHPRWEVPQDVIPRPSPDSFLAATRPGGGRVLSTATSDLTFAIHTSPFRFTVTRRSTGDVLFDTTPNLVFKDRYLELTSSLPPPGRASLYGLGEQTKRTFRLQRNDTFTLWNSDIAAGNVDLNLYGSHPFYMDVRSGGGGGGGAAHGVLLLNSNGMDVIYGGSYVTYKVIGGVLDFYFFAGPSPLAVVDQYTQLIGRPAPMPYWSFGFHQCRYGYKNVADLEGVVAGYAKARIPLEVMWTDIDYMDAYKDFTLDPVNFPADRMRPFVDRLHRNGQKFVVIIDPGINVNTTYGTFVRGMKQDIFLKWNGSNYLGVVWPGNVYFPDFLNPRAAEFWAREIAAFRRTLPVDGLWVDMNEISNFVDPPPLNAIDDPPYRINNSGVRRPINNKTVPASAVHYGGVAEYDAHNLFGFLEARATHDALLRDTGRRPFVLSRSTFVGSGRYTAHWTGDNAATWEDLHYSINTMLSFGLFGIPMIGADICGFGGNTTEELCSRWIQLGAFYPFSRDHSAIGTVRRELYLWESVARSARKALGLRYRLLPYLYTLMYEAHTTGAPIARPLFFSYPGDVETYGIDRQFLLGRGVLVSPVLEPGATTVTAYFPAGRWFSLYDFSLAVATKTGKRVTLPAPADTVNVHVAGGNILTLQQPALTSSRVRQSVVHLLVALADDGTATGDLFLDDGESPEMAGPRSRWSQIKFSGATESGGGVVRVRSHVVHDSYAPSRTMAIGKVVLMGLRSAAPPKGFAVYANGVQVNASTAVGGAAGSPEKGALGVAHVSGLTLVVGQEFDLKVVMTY
α-D-glucosidase (Bacillus), sequence (A0ACH1E9U3 entry or part of it): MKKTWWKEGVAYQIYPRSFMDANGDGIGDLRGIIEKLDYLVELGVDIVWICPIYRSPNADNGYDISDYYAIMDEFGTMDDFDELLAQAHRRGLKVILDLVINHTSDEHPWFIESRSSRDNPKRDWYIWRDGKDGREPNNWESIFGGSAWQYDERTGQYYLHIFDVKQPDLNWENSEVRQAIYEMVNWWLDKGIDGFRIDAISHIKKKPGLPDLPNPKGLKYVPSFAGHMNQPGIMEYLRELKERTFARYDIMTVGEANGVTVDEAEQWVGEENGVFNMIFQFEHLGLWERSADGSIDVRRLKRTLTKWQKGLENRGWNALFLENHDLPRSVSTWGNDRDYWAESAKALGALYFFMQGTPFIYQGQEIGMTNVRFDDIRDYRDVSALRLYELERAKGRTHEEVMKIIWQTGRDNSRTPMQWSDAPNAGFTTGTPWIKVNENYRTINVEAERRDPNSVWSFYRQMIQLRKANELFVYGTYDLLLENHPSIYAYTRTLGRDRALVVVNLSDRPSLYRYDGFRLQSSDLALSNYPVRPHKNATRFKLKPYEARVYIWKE
T2 sequence (Q42656 16-378): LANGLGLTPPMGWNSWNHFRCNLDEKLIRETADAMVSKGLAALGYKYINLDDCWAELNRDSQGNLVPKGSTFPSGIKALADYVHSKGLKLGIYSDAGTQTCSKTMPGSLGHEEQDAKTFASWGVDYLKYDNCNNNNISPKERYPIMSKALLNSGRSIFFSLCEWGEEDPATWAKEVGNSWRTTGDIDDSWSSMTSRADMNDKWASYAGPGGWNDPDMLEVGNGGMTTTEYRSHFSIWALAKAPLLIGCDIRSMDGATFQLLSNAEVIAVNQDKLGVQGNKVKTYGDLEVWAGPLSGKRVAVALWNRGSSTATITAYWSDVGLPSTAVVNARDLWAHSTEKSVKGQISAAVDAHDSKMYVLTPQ
T6 sequence (P53341 whole entry): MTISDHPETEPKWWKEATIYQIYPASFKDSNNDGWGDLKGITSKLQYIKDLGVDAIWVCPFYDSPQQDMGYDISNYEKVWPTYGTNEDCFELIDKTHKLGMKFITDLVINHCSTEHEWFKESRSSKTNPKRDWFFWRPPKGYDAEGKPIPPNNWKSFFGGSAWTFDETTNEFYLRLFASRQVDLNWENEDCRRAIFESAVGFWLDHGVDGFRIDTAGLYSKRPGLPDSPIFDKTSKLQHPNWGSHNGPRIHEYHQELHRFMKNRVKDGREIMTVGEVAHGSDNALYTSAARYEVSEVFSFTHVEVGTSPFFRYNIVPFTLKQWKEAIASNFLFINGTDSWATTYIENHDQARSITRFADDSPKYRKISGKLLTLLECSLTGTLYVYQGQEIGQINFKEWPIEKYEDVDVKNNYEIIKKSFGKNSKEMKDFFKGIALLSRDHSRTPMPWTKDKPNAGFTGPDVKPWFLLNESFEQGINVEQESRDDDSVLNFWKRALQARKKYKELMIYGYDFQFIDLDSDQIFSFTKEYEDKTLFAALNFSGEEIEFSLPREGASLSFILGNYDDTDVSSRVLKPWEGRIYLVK

As usually defined, the inhibition is the relative decrease from the control value, in per cent. High values mean a response far below the control, low ones a response near the control. In the case of `OCCN1C[C@H](O)[C@@H](O)[C@H](O)[C@H]1CO` [Miglitol, reference compound], the inhibition at 800 µM in assay [1] was less than 5%; in [2] it was 19%; in [3], less than 5%; at α-D-glucosidase (Rice), 100%; in [9] it was 83%; in assay [10], 78%. In addition, the inhibition at 800 µM at α-D-glucosidase (Yeast) is less than 5%. Besides, the “% inhibition, β-D-glucosidase (Almond)” value with β-D-glucosidase (Almond) stood at 99%. Moreover, the “% inhibition, N-acetyl-β-D-glucosaminidase (Bovine kidney)” value in assay [4] was “NI (NI = no inhibition)”. In assay [5], the “% inhibition, N-acetyl-β-D-glucosaminidase (Jack bean)” value is recorded as “NI (NI = no inhibition)”. Besides, the “% inhibition, β-D-galactosidase Bovine liver” value in assay [6] stood at 87%. For the same compound, the “% inhibition, Naringinase Penicillium decumbens” value in assay [7] is 26%. Further, the “% inhibition, β-D-mannosidase Cellullomonas fimi” value in [8] is “NI (NI = no inhibition)”.

The record behind these values is patent US20110015226A1, “Treatment of Energy Utilization Disease” (SUMMIT CORPORATION PLC, priority 2008, published 2011).
